Assays:
Assay in all cases: Kinase inhibitor library screening, PrestoBlue cell viability, 1 or 10 μM, 72 h
501Mel cells (parental) = settings: 501Mel Parental
In short: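 Normalised to untreated controls, viability percentages came from PrestoBlue measured on a microplate reader following 72 h incubation with drug. Each line was assayed at least twice.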

[1] = system: 501Mel-GP cells (Dabrafenib-resistant); settings: 501Mel GP
[2] = system: 501Mel-XP cells (Vemurafenib-resistant); settings: 501Mel XP
A375 cells (parental) = settings: A375 Parental
[3] = system: A375-GP cells (Dabrafenib-resistant); settings: A375 GP
[4] = system: A375-XP cells (Vemurafenib-resistant); settings: A375 XP
IGR37 cells (parental) = settings: IGR37 Parental
[5] = system: IGR37-GP cells (Dabrafenib-resistant); settings: IGR37 GP
[6] = system: IGR37-XP cells (Vemurafenib-resistant); settings: IGR37 XP

| SMILES | cell viability (kinase inhibitor library screening) (501Mel cells (parental); 1μΜ, 72 h) [%] | cell viability (kinase inhibitor library screening) (501Mel cells (parental); 10μΜ, 72 h) [%] | cell viability (kinase inhibitor library screening) ([1]; 1μΜ, 72 h) [%] | cell viability (kinase inhibitor library screening) ([1]; 10μΜ, 72 h) [%] | cell viability (kinase inhibitor library screening) ([2]; 1μΜ, 72 h) [%] | cell viability (kinase inhibitor library screening) ([2]; 10μΜ, 72 h) [%] | cell viability (kinase inhibitor library screening) (A375 cells (parental); 10μΜ, 72 h) [%] | cell viability (kinase inhibitor library screening) (A375 cells (parental); 1μΜ, 72 h) [%] | cell viability (kinase inhibitor library screening) ([3]; 1μΜ, 72 h) [%] | cell viability (kinase inhibitor library screening) ([3]; 10μΜ, 72 h) [%] | cell viability (kinase inhibitor library screening) ([4]; 1μΜ, 72 h) [%] | cell viability (kinase inhibitor library screening) ([4]; 10μΜ, 72 h) [%] | cell viability (kinase inhibitor library screening) (IGR37 cells (parental); 1μΜ, 72 h) [%] | cell viability (kinase inhibitor library screening) (IGR37 cells (parental); 10μΜ, 72 h) [%] | cell viability (kinase inhibitor library screening) ([5]; 1μΜ, 72 h) [%] | cell viability (kinase inhibitor library screening) ([5]; 10μΜ, 72 h) [%] | cell viability (kinase inhibitor library screening) ([6]; 1μΜ, 72 h) [%] | cell viability (kinase inhibitor library screening) ([6]; 10μΜ, 72 h) [%] | also measured |
| --- | --- | --- | --- | --- | --- | --- | --- | --- | --- | --- | --- | --- | --- | --- | --- | --- | --- | --- | --- |
| O=C1NC(=O)C(c2ccccc2[N+](=O)[O-])=C1Nc1ccc(O)c(Cl)c1 [SB 415286] |  |  |  |  |  |  |  |  |  |  |  |  |  |  |  |  |  |  | cell viability, 501Mel Parental, 1μΜ (501Mel cells (parental); 1μΜ, 72 h, in %): 94.3; cell viability, 501Mel Parental, 10μΜ (501Mel cells (parental); 10μΜ, 72 h, in %): 76.0; cell viability, 501Mel GP, 1μΜ ([1]; 1μΜ, 72 h, in %): 100.2; cell viability, 501Mel GP, 10μΜ ([1]; 10μΜ, 72 h, in %): 76.0; cell viability, 501Mel XP, 1μΜ ([2]; 1μΜ, 72 h, in %): 92.5; cell viability, 501Mel XP, 10μΜ ([2]; 10μΜ, 72 h, in %): 76.3; cell viability, A375 Parental, 1μΜ (A375 cells (parental); 1μΜ, 72 h, in %): 99.8; cell viability, A375 Parental, 10μΜ (A375 cells (parental); 10μΜ, 72 h, in %): 78.1; cell viability, A375 GP, 1μΜ ([3]; 1μΜ, 72 h, in %): 95.9; cell viability, A375 GP, 10μΜ ([3]; 10μΜ, 72 h, in %): 86.4; cell viability, A375 XP, 1μΜ ([4]; 1μΜ, 72 h, in %): 100.0; cell viability, A375 XP, 10μΜ ([4]; 10μΜ, 72 h, in %): 92.8; cell viability, IGR37 Parental, 1μΜ (IGR37 cells (parental); 1μΜ, 72 h, in %): 102.6; cell viability, IGR37 GP, 10μΜ ([5]; 10μΜ, 72 h): 93.7%; cell viability, IGR37 GP, 1μΜ ([5]; 1μΜ, 72 h, in %): 94.9; cell viability, IGR37 XP, 10μΜ ([6]; 10μΜ, 72 h): 85.4%; cell viability, IGR37 XP, 1μΜ ([6]; 1μΜ, 72 h, in %): 98.9 |
| Cc1cccc(-c2[nH]c(C(C)(C)C)nc2-c2ccc3nccnc3c2)n1 [SB 525334] |  |  |  |  |  |  |  |  |  |  |  |  |  |  |  |  |  |  | cell viability (kinase inhibitor library screening) (501Mel cells (parental); 1μΜ, in %): 98.2; cell viability (kinase inhibitor library screening) (501Mel cells (parental); 10μΜ, in %): 90.3; cell viability (kinase inhibitor library screening) ([1]; 1μΜ, in %): 110.1; cell viability (kinase inhibitor library screening) ([1]; 10μΜ, in %): 89.8; cell viability (kinase inhibitor library screening) ([2]; 1μΜ, in %): 100.5; cell viability (kinase inhibitor library screening) ([2]; 10μΜ, in %): 78.5; cell viability (kinase inhibitor library screening) (A375 cells (parental); 1μΜ, in %): 112.1; cell viability (kinase inhibitor library screening) (A375 cells (parental); 10μΜ, in %): 110.1; cell viability (kinase inhibitor library screening) ([3]; 1μΜ, in %): 114.6; cell viability (kinase inhibitor library screening) ([3]; 10μΜ, in %): 93.3; cell viability (kinase inhibitor library screening) ([4]; 1μΜ, in %): 109.3; cell viability (kinase inhibitor library screening) ([4]; 10μΜ, in %): 103.4; cell viability (kinase inhibitor library screening) (IGR37 cells (parental); 1μΜ, in %): 104.1; cell viability (kinase inhibitor library screening) (IGR37 cells (parental); 10μΜ, in %): 104.6; cell viability (kinase inhibitor library screening) ([5]; 1μΜ, in %): 99.0; cell viability (kinase inhibitor library screening) ([5]; 10μΜ, in %): 73.8; cell viability (kinase inhibitor library screening) ([6]; 1μΜ, in %): 91.6; cell viability (kinase inhibitor library screening) ([6]; 10μΜ, in %): 60.0 |
| CC(C)(C)c1cnc(CSc2cnc(NC(=O)C3CCNCC3)s2)o1 [SNS-032 (BMS-387032)] | 23.5 | 0.4 | 31.8 | 0.161 | 30.8 | -0.0482 | 7.7 | 13.7 | 8.3 | 3.6 | 14.3 | 6.4 | 3.3 | 0.754 | 8.6 | 2.7 | 2.8 | 2.1 |  |
| O=C(Nc1cccc(Cl)c1)Nc1ncc(CCNc2ncnc3ccsc23)s1 [SNS-314] | 79.7 | 75.7 | 79.1 | 58.4 | 72.3 | 46.6 | 46.0 | 47.7 | 47.1 | 46.9 | 56.7 | 55.3 | 81.9 | 57.7 | 93.6 | 58.8 | 88.3 | 20.8 |  |

— PMC6364417, “Kinase inhibitor library screening identifies synergistic drug combinations effective in sensitive and resistant melanoma cells” (Journal of Experimental & Clinical Cancer Research : CR, 2019)
